From ChEMBL document CHEMBL1201862, “PubChem BioAssay data set” (2004)
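Following 48 hours of exposure in 96-well plates, responses at five concentrations were used to interpolate endpoints linearly. Abbreviation: GI50, concentration required for 50% inhibition of growth.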 Calls of active or inactive are those of the source. No stated cut-off is given here; in the data, active = GI50 up to about 1.1 µM and inactive = higher.

Columns and labels:
Assay in all cases: inhibition of tumour cell growth, NCI panel, 48 h
A498 = test system: A498
CAKI-1 = test system: CAKI-1
DU-145 = test system: DU-145
HCT-15 = test system: HCT-15
Hs-578T = test system: Hs-578T
K562 = test system: K562
KM12 = test system: KM12
M14 = test system: M14
MDA-MB-231 = test system: MDA-MB-231
MDA-MB-435 = test system: MDA-MB-435
NCI-H226 = test system: NCI-H226
NCI-H460 = test system: NCI-H460
NCI/ADR-RES = test system: NCI/ADR-RES
OVCAR-5 = test system: OVCAR-5
PC-3 = test system: PC-3
SF-295 = test system: SF-295
SF-539 = test system: SF-539
SN12C = test system: SN12C
TK-10 = test system: TK-10
UACC-62 = test system: UACC-62

Row | SMILES | GI50 (A498) | GI50 (CAKI-1) | GI50 (DU-145) | GI50 (HCT-15) [µM] | GI50 (Hs-578T) | GI50 (K562) | GI50 (KM12) | GI50 (M14) | GI50 (MDA-MB-231) | GI50 (MDA-MB-435) | GI50 (NCI-H226) | GI50 (NCI-H460) | GI50 (NCI/ADR-RES) | GI50 (OVCAR-5) | GI50 (PC-3) | GI50 (SF-295) | GI50 (SF-539) | GI50 (SN12C) | GI50 (TK-10) | GI50 (UACC-62)
1 | O=C(O)c1ccc(C(=O)c2ccccc2)c(C(=O)O)c1 | > 100 µM (inactive) | > 100 µM (inactive) | > 100 µM (inactive) | > 100 | > 100 µM (inactive) | > 100 µM (inactive) | > 100 µM (inactive) | > 100 µM (inactive) | > 100 µM (inactive) | > 100 µM (inactive) | > 100 µM (inactive) | > 100 µM (inactive) | > 100 µM (inactive) | > 100 µM (inactive) | > 100 µM (inactive) | > 100 µM (inactive) | > 100 µM (inactive) | > 100 µM (inactive) | > 100 µM (inactive) | > 100 µM (inactive)
2 | CCOC1OC(C)(C=C(C#N)C#N)CCC1C (stereo not given) | 22.4 µM (inactive) | 33.2 µM (inactive) | 39.2 µM (inactive) | 25.5 | 36 µM (inactive) | 16.8 µM (inactive) | > 74 µM (inactive) | 35.5 µM (inactive) | 88.1 µM (inactive) | 39.1 µM (inactive) | 23 µM (inactive) | 34.2 µM (inactive) | 35.2 µM (inactive) | > 85.7 µM (inactive) | 49 µM (inactive) | > 67.5 µM (inactive) | 23.8 µM (inactive) | 33.7 µM (inactive) | 59.6 µM (inactive) | 38 µM (inactive)
3 | C=CCN(c1cc(O)c2c(c(C)cn2S(=O)(=O)c2ccccc2)c1[N+](=O)[O-])S(C)(=O)=O | 74.1 µM (inactive) | > 100 µM (inactive) | > 100 µM (inactive) | > 100 | > 100 µM (inactive) | 38.5 µM (inactive) | > 100 µM (inactive) | > 100 µM (inactive) | > 100 µM (inactive) | 29.2 µM (inactive) | > 100 µM (inactive) | 63.8 µM (inactive) | > 100 µM (inactive) | > 100 µM (inactive) | > 100 µM (inactive) | 48.5 µM (inactive) | > 100 µM (inactive) | 78.9 µM (inactive) | > 100 µM (inactive) | > 10 µM (inactive)
4 | O=C1C([P+](c2ccccc2)(c2ccccc2)c2ccccc2)=C([O-])C(=Cc2ccc(Cl)c(Cl)c2)C([O-])=C1[P+](c1ccccc1)(c1ccccc1)c1ccccc1 | 15.1 µM (inactive) | 2.18 µM (inactive) | 7.67 µM (inactive) | 4.79 | 4.02 µM (inactive) | 1.6 µM (inactive) | 2.01 µM (inactive) | 2.38 µM (inactive) | 2.96 µM (inactive) | 2.3 µM (inactive) | 3.44 µM (inactive) | 2.89 µM (inactive) | 8.71 µM (inactive) | 3.56 µM (inactive) | 1.71 µM (inactive) | 2.65 µM (inactive) | 2.55 µM (inactive) | 2.43 µM (inactive) | 2.71 µM (inactive) | 2.23 µM (inactive)
5 | COC(=O)NNC(=O)OC.COC(=O)Nc1ccccc1NC(=O)OC.COC(=O)Oc1nn(C(=O)OC)c(=O)c2ccccc12 | 39.1 µM (inactive) | > 100 µM (inactive) | > 100 µM (inactive) | > 100 | > 100 µM (inactive) | > 100 µM (inactive) | > 100 µM (inactive) | > 100 µM (inactive) | > 100 µM (inactive) | > 100 µM (inactive) | > 100 µM (inactive) | > 100 µM (inactive) | > 100 µM (inactive) | > 100 µM (inactive) | > 100 µM (inactive) | > 100 µM (inactive) | > 100 µM (inactive) | > 100 µM (inactive) | > 100 µM (inactive) | > 100 µM (inactive)
6 | CN1CC=C(OP(=O)(NCc2ccccc2)N(CCCl)CCCl)CC1 (stereo not given) | > 100 µM (inactive) | > 100 µM (inactive) | > 100 µM (inactive) | > 100 | > 100 µM (inactive) | > 100 µM (inactive) | > 100 µM (inactive) | > 100 µM (inactive) | > 100 µM (inactive) | > 100 µM (inactive) | > 100 µM (inactive) | > 100 µM (inactive) | > 100 µM (inactive) | > 100 µM (inactive) | > 100 µM (inactive) | > 100 µM (inactive) | > 100 µM (inactive) | > 100 µM (inactive) | > 100 µM (inactive) | > 100 µM (inactive)
7 | C=C[C@]1(C)CC[C@]2(C)C(CC[C@@]3(C)C2C[C@H](O)[C@H](O)[C@@]3(C)O)C1 (stereo not given in full) | > 100 µM (inactive) | > 100 µM (inactive) | > 100 µM (inactive) | > 100 | > 100 µM (inactive) | > 100 µM (inactive) | > 100 µM (inactive) | > 100 µM (inactive) | > 100 µM (inactive) | > 100 µM (inactive) | > 100 µM (inactive) | > 100 µM (inactive) | > 100 µM (inactive) | > 100 µM (inactive) | > 100 µM (inactive) | > 100 µM (inactive) | > 100 µM (inactive) | > 100 µM (inactive) | > 100 µM (inactive) | > 100 µM (inactive)
8 | CN(/N=C/c1ccnc2ccccc12)c1ccc(Cl)cc1[N+](=O)[O-] | > 100 µM (inactive) | > 100 µM (inactive) | > 100 µM (inactive) | > 100 | 12.5 µM (inactive) | > 100 µM (inactive) | > 100 µM (inactive) | > 100 µM (inactive) | > 100 µM (inactive) | > 100 µM (inactive) | > 100 µM (inactive) | > 100 µM (inactive) | > 100 µM (inactive) | > 100 µM (inactive) | > 100 µM (inactive) | 15.1 µM (inactive) | 24.4 µM (inactive) | > 100 µM (inactive) | 35.6 µM (inactive) | > 100 µM (inactive)
9 | CC(C)[C@@H]1CC[C@@H](C)C[C@H]1OC(=O)/C=C1/C2C=CC(O2)C1C(=O)O[C@@H]1C[C@H](C)CC[C@H]1C(C)C (stereo not given in full) | > 100 µM (inactive) | > 100 µM (inactive) | > 100 µM (inactive) | > 100 | > 100 µM (inactive) | 51.4 µM (inactive) | > 100 µM (inactive) | > 100 µM (inactive) | > 100 µM (inactive) | > 100 µM (inactive) | 28.4 µM (inactive) | 89.1 µM (inactive) | > 100 µM (inactive) | > 100 µM (inactive) | 56 µM (inactive) | 65.3 µM (inactive) | > 100 µM (inactive) | > 100 µM (inactive) | > 100 µM (inactive) | > 100 µM (inactive)
10 | C/C(=N\NC(=S)Nc1ccc([N+](=O)[O-])cc1)c1nc2cccnc2[nH]1 | 2.67 µM (inactive) | 1 µM (active) | 1.21 µM (inactive) | 0.617 | 1.27 µM (inactive) | 1.55 µM (inactive) | 0.873 µM (active) | 1.26 µM (inactive) | 1.31 µM (inactive) | 1.34 µM (inactive) | 0.504 µM (active) | 0.379 µM (active) | 1.13 µM (inactive) | 1.08 µM (active) | 1.24 µM (inactive) | 0.352 µM (active) | 0.288 µM (active) | 1.65 µM (inactive) | 0.327 µM (active) | 0.447 µM (active)
11 | N#CC(C#N)=C1CCCCc2ccc([N+](=O)[O-])cc21 | 78.3 µM (inactive) | 95.7 µM (inactive) | > 100 µM (inactive) | 63.7 | > 100 µM (inactive) | 39.4 µM (inactive) | > 100 µM (inactive) | > 100 µM (inactive) | > 100 µM (inactive) | > 100 µM (inactive) | > 100 µM (inactive) | > 100 µM (inactive) | > 100 µM (inactive) | > 100 µM (inactive) | 55.3 µM (inactive) | > 100 µM (inactive) | > 100 µM (inactive) | 52.6 µM (inactive) | > 100 µM (inactive) | > 100 µM (inactive)
12 | CCC1(OC(=O)CN2CCN(CCO)CC2)C(=O)OCc2c1cc1n(c2=O)Cc2cc3ccccc3nc2-1 (stereo not given) | 0.514 µM (active) | 0.047 µM (active) | 0.0822 µM (active) | 1.49 | 14 µM (inactive) | 0.583 µM (active) | 0.457 µM (active) | 0.265 µM (active) | 14.1 µM (inactive) | 1.15 µM (inactive) | 0.329 µM (active) | 0.0614 µM (active) | 0.11 µM (active) | 1.1 µM (active) | 0.405 µM (active) | 0.141 µM (active) | 0.188 µM (active) | 0.125 µM (active) | 8.49 µM (inactive) | 0.0759 µM (active)
13 | NC(=O)c1cccc([C@@H]2O[C@H](CO)[C@@H](O)[C@H]2O)c1 | > 100 µM (inactive) | 18.4 µM (inactive) | 30.6 µM (inactive) | 3.37 | 10.5 µM (inactive) | 3.17 µM (inactive) | 4.09 µM (inactive) | 3.2 µM (inactive) | 77.1 µM (inactive) | > 49.2 µM (inactive) | 12.5 µM (inactive) | 48.5 µM (inactive) | 6.41 µM (inactive) | 47.4 µM (inactive) | 30.9 µM (inactive) | 9.06 µM (inactive) | 2.24 µM (inactive) | 40.4 µM (inactive) | 29.6 µM (inactive) | 29.1 µM (inactive)
